Data: paper PMC7012012, “Bioassay-guided isolation, identification of compounds from Origanum rotundifolium and investigation of their antiproliferative and antioxidant activities” (Pharmaceutical Biology, 2017)
Where “and” joins values, the source holds several entries; their conditions need not be identical. Equal entries are not always repeated.

Tests used:
[1] = DPPH free radical scavenging assay; details: 30 min, absorbance 517 nm
Procedure: The free radical scavenging activities of extracts and standards were evaluated by 2,2-diphenyl-1-picrylhydrazil (DPPH^•) (Blois [1958]). To a different concentration of 3.0 mL of extract (3.0–20 μg/mL) in ethanol, DPPH^• solution (1.0 mL, 0.26 mM) were added. After that it is stirred and kept at Rt for 30 min, The absorbance of the mixture was executed at 517 nm in a spectrophotometer. The activity was calculated by the below equation. DPPH• scavenging effect %=Ac-As/Ac×100
In which, Ac and As are the control and sample absorbance, respectively.

[2] = ABTS radical cation scavenging assay; details: 30 min, absorbance 734 nm; unit printed only in abstract
Procedure: 2,2″-Azino-bis (3-ethylbenzthiazoline-6-sulfonic acid) (ABTS) cation radical scavenging assay based on the decreasing ABTS radical cation, a blue/green chromophore with absorption at […], in comparison to that of BHA, BHT and Trolox. This method was executed as in the literature (Re et al. [1999]). Treatment of ABTS (2.0 mM) in phosphate buffer (0.1 M, pH 7.4) with potassium persulfate (K2S2O8) (2.45 mM) gave the ABTS^•+, kept at dark at Rt for 4 h. Initially, dilution of ABTS^•+ was performed with sodium phosphate buffer (pH 7.4, 0.1 M) to obtain absorbance 0.750 ± 0.025 at 734 nm. After all, ABTS^•+ solution (1.0 mL) was added to each extract solution in ethanol (3.0 mL) at different concentration (2.5–20 μg/mL). After 30 min, the inhibition was calculated for each concentration relative to a blank absorbance. The scavenging ability of ABTS^•+ was calculated by given equation:
ABTS^•+scavenging activity (%)=[(Ac – As)/Ac]*100 in which, Ac is the initial concentration of ABTS^•+ and As is the absorbance of the remaining concentration of ABTS^•+ in the samples.

[3] = Ferric ions (Fe3+) reducing antioxidant power assay (FRAP); details: 10 μg/mL
Procedure: Different concentrations of samples (5–40 μg/mL) in 1 mL of deionized water were mixed with sodium phosphate buffer (1.25 mL, 0.2 M, pH 6.6) and potassium ferricyanide [K3Fe(CN)6] (1.25 mL, 1%). After the incubation of the mixture at 50 °C for 20 min, trichloroacetic acid (1.25 mL, 10%) and FeCl3 (0.25 mL, 0.1%) were added to the reaction medium. The reaction mixture was vortexed thoroughly and absorbance measurement at 700 nm was executed in a spectrophotometer.

[4] = test system: HeLa (human cervix carcinoma) cell lines; experiment: BrdU cell proliferation ELISA, HeLa; assay type: cell-based; details: for Tumour specificity HeLa: HeLa relative to Vero; for IC50: BrdU ELISA
Procedure: (§1) Anticancer potential of isolated compounds was investigated on C6, HT29, HeLa and Vero cell lines. These cells were sustained with Dulbecco’s modified eagle’s medium, complemented with foetal bovine serum and PenStep solution (ATCC, American Type Culture Collection). The old medium was aspirated out of the plate while cells had reached a confluence of 80% then cells were removed from the flasks using trypsin-EDTA (4 mL) and centrifuged. Afterward, cell pellet was suspended with DMEM and was counted to gain a final concentration as 5 × 10^4 cells/mL, inoculated into wells (100 μL cells/well).
(§2) The antiproliferative activity of compounds against various cell lines (C6, HeLa and Vero cells) was tested by cell proliferation assay using BrdU Cell Proliferation ELISA kit. A cell suspension containing nearly 5 × 10^3 cells in 100 μL was conveyed into the well cell plates (96-well cell). The treatments of cells with compounds in DMSO and 5-Florouracil (5 FU) in DMSO separately at concentration 5–100 μg/mL were carried out. The last volume of the wells was adapted to 200 μL by DMEM and mixture was incubated at 37 °C with 5% CO2 for overnight (Okten et al. [2013]).
(§3) The half inhibitory concentration of the isolated compounds and standards was calculated by XLfit5 software (IDBS) and explicated in μM at 95% confidence levels (Table 1). The proliferation results were recorded as the per cent inhibition of the compounds and control substances. The following formula was used for the calculation of inhibition % Inhibition = [Asample– Acontrol/Acontrol]×100
(§4) where Asample is the absorbance of the compounds and Acontrol is the absorbance of the DMSO.

[5] = test system: HT29 (human colon carcinoma) cell lines; experiment: BrdU cell proliferation ELISA, HT29; assay type: cell-based; details: for Tumour specificity HT29: HT29 relative to Vero
Procedure: as §1, §2, §3, §4

[6] = test system: C6 (rat brain tumour) cell lines; experiment: BrdU cell proliferation ELISA, C6; assay type: cell-based; details: for IC50: C6, BrdU ELISA; for Tumour specificity C6: C6 relative to Vero; for Antiproliferative activity on C6 (in words): C6, 5-100 μg/mL
Procedure: as §1, §2, §3, §4

[7] = test system: Vero (African green monkey kidney epithelium) cells; experiment: BrdU cell proliferation ELISA, Vero; assay type: cell-based; details: for IC50: BrdU ELISA; for Antiproliferative activity on Vero (in words): 5-100 μg/mL
Procedure: as §1, §2, §3, §4

[8] = Homo sapiens, HT-29, HT29, BrdU ELISA

Molecule	IC50 [1] [µM]	ABTS radical cation scavenging IC50 [2]	IC50 ([4]; Homo sapiens, HeLa) [µM]	IC50 [5, 8] [µM]	IC50 ([6]; Rattus norvegicus) [µM]	Reducing power (absorbance at 700 nm) [3]	Tumour specificity HeLa [4]	IC50 ([4]; HeLa) [µM]	IC50 ([5]; HT29, BrdU ELISA) [µM]	Tumour specificity HT29 [5]	IC50 [6] [µM]	IC50 ([6]; listed as cisplatin) [µM]	Tumour specificity C6 [6]	IC50 [7] [µM]	Antiproliferative activity on HeLa (in words) ([4]; HeLa, 5-100 μg/mL)	Antiproliferative activity on HT29 (in words) ([5]; HT29, 5-100 μg/mL)	Antiproliferative activity on C6 (in words) [6]	Antiproliferative activity on Vero (in words) [7]	IC50 ([7]; Chlorocebus sabaeus) [µM]
COc1ccc(O)c(C(C)(C)C)c1 [BHA, butylated hydroxyanisole, reference compound]	12.9	7.6 µg/mL				1.12													
N.N.[Cl][Pt][Cl] [Cisplatin, reference compound]							0.92	44.2	48.6	0.84	61.5	61.5	0.66	40.8					
caprolactam [Compound 4]	329	61.5 µg/mL				0.08											Noticeable effect has not been detected	did not reveal the remarkable activity	
vitexin [Compound 3]	31.4	3.6 µg/mL and 3.7 µg/mL				0.27	1.31	35.6	32.5	1.43	41.6		1.12	46.7				effective at high concentrations	

Continued, in another order:

IC50 [1] [µM]	ABTS radical cation scavenging IC50 [2]	IC50 ([4]; Homo sapiens, HeLa) [µM]	IC50 [5, 8] [µM]	IC50 ([6]; Rattus norvegicus) [µM]	Molecule	Reducing power (absorbance at 700 nm) [3]	Tumour specificity HeLa [4]	IC50 ([4]; HeLa) [µM]	IC50 ([5]; HT29, BrdU ELISA) [µM]	Tumour specificity HT29 [5]	IC50 [6] [µM]	IC50 ([6]; listed as cisplatin) [µM]	Tumour specificity C6 [6]	IC50 [7] [µM]	Antiproliferative activity on HeLa (in words) ([4]; HeLa, 5-100 μg/mL)	Antiproliferative activity on HT29 (in words) ([5]; HT29, 5-100 μg/mL)	Antiproliferative activity on C6 (in words) [6]	Antiproliferative activity on Vero (in words) [7]	IC50 ([7]; Chlorocebus sabaeus) [µM]
196	5.0 µg/mL				Cc1cc(C(C)(C)C)c(O)c(C(C)(C)C)c1 [BHT, Butylated hydroxytoluene, reference compound]	0.81													
173	8.9 µg/mL				O=c1cc(-c2ccc(O)cc2)oc2cc(O)cc(O)c12 [Compound 1, Apigenin]	0.14									did not reveal the noticeable activity	has not a noteworthy effect	Noticeable effect has not been detected	did not reveal the remarkable activity	
47.2	14.2 µg/mL	233	262	252	O=C(/C=C/c1ccc(O)c(O)c1)O[C@H](Cc1ccc(O)c(O)c1)C(=O)O [Compound 5, rosmarinic acid]	0.60	1.19		262	1.07	251		1.11					good effect	279
22.4	4.6 µg/mL	140	136	169	O=C(OC(Cc1ccc(O)c(O)c1)C(=O)O)c1cc(-c2ccc(O)c(O)c2)c2cc(O)c(O)cc2c1 (centres unmarked) [Compound 6, globoidnan A]	1.25		140	136		169							did not reveal the remarkable activity	
	13.8 µg/mL				Cc1c(C)c2c(c(C)c1O)CCC(C)(C(=O)O)O2 (centres unmarked) [Trolox, reference compound]	0.61													
